In general, EC50 refers to the concentration giving half of the maximal effect. A low value points to greater potency. In general, inhibition refers to the relative decrease from the control value, in per cent.

The values that follow come from patent publication US20180214428A1, “3-(1H-INDOL-2-YL)-1H-PYRAZOLO[3,4-B]PYRIDINES AND THERAPEUTIC USES THEREOF” (Samumed, LLC, priority 2015, published 2018).

One test relates to SW480 colon cancer cells. The experiment in a line: Cell viability assay (CellTiter-Blue) in SW480 colon cancer cells. In kind it is cell-based, human. The settings on record: Homo sapiens; for EC50: 96 h, four days, CellTiter-Blue; for inhibition at 10 µM: given for EC50 of >10 μM, read-out: percent inhibition at 10 μM. The essentials:
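Four-day viability readout in SW480 cells: compound at 0.0045–10 μM (1:3 series), DMSO controls in eight replicates, CellTiter-Blue fluorescence after ~3 h. Values are regression-derived EC50s, or percent inhibition at 10 μM when EC50 exceeds 10 μM.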
On the technique in general: The colour change of resazurin is a common sign of viable cells or microbes.

Test [1] relates to Wnt activity (Sp5-Luc reporter gene, SW480 colon carcinoma cells). The test is described as follows: Screening assay for Wnt activity: Sp5-Luc reporter gene assay in SW480 cells. The format is cell-based, human. The settings on record: Homo sapiens; for inhibition at 10 µM: given for EC50 of >10 μM, read-out: percent inhibition at 10 μM; for EC50: overnight incubation. The gist of the method:
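SW480 cells stably transduced with a luciferase reporter driven by an Sp5 promoter of eight TCF/LEF sites were plated at 4,000 cells/well in 1% FBS medium. They were exposed overnight at 37° C to a 10-point 1:3 dilution series from 10 μM (0.1% DMSO). Luminescence was normalized to DMSO for four-parameter EC50, or percent inhibition at 10 μM.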
On the technique in general: Reporter assays use an easily measured gene product as a stand-in for the process of interest.

Test [2] has as its system primary human fibroblasts derived from IPF patients (LL29 cells). The experiment in a line: Inhibition of the fibrotic process: αSMA staining in TGF-β1 treated LL29 fibroblasts. In kind it is cell-based. The settings on record: Homo sapiens, Fibroblast, 96 h, TGF-β1 20 ng/mL, 4 days, % αSMA positive cells. The gist of the method: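 IPF patient-derived LL29 fibroblasts in 1% FBS medium got compound (11-point, 10 μM to 1.87 nM, 0.1% DMSO) plus TGF-β1 20 ng/mL, 4 days at 37° C. αSMA-positive live cells (SYTOX-excluded) were imaged, normalized to TGF-β1 controls and fitted for EC50; % inhibition at 10 μM given when EC50 >10 μM.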

For the molecule `Cc1ccncc1-c1cnc2[nH]nc(-c3cc4c(-c5ccncc5)cccc4[nH]3)c2c1` [Compound 99, 5-(4-Methylpyridin-3-yl)-3-(4-(pyridin-4-yl)-1H-indol-2-yl)-1H-pyrazolo[3,4-b]pyridine], the half-maximal effective concentration (EC50) in the test with SW480 colon cancer cells is above 10000 nM; in test [1], above 10000 nM; in test [2], 2610 nM. Further, the results for the inhibition at 10 µM (with SW480 colon cancer cells; in test [1]) were 36.8% and 69.3%, respectively.

Take `c1cc(-c2ccncc2)c2cc(-c3n[nH]c4ncc(-c5ccncc5)cc34)[nH]c2c1` [Compound 111, 5-(Pyridin-4-yl)-3-(4-(pyridin-4-yl)-1H-indol-2-yl)-1H-pyrazolo[3,4-b]pyridine]: the values for the concentration giving a half-maximal response (EC50) (in the test on SW480 colon cancer cells; in test [1]; in test [2]) were above 10000 nM, above 10000 nM and 2770 nM, respectively. Moreover, the inhibition at 10 µM in the test on SW480 colon cancer cells amounted to 36.4%; in test [1], 17.6%.

Turning to `O=C(Nc1cncc(-c2cnc3[nH]nc(-c4cc5c(-c6ccncc6)cccc5[nH]4)c3c2)c1)C1CCCCC1` [Compound 115, N-(5-(3-(4-(Pyridin-4-yl)-1H-indol-2-yl)-1H-pyrazolo[3,4-b]pyridin-5-yl)pyridin-3-yl)cyclohexanecarboxamide], the concentration for a half-maximal effect (EC50) with SW480 colon cancer cells was above 10000 nM; in test [1] it was 5420 nM; in test [2], 4980 nM. In the test with SW480 colon cancer cells, the inhibition at 10 µM amounted to 24.3%.

Turning to `c1ccc(CNCc2cncc(-c3cnc4[nH]nc(-c5cc6c(-c7ccncc7)cccc6[nH]5)c4c3)c2)cc1` [Compound 116, N-Benzyl-1-(5-(3-(4-(pyridin-4-yl)-1H-indol-2-yl)-1H-pyrazolo[3,4-b]pyridin-5-yl)pyridin-3-yl)methanamine], the EC50 with SW480 colon cancer cells is 3590 nM; in test [1], 3820 nM; in test [2] it was 2530 nM.

Consider `FC1(F)CCN(Cc2cncc(-c3cnc4[nH]nc(-c5cc6c(-c7ccncc7)cccc6[nH]5)c4c3)c2)C1` [Compound 118, 5-(5-((3,3-Difluoropyrrolidin-1-yl)methyl)pyridin-3-yl)-3-(4-(pyridin-4-yl)-1H-indol-2-yl)-1H-pyrazolo[3,4-b]pyridine], for which the values for the EC50 (with SW480 colon cancer cells; in test [1]; in test [2]) were 4140 nM, 708 nM and 760 nM, respectively.

For `c1ccc(-c2cnc3[nH]nc(-c4cc5c(-c6ccncc6)cccc5[nH]4)c3c2)nc1` [Compound 120, 5-(Pyridin-2-yl)-3-(4-(pyridin-4-yl)-1H-indol-2-yl)-1H-pyrazolo[3,4-b]pyridine], the concentration for a half-maximal effect (EC50) in the test on SW480 colon cancer cells is above 10000 nM; in test [1], above 10000 nM; in test [2], 642 nM. Also, the inhibition at 10 µM in the test on SW480 colon cancer cells worked out at 22.8%; in test [1], 16.1%.

Regarding `Nc1cncc(-c2cnc3[nH]nc(-c4cc5c(-c6ccccn6)cccc5[nH]4)c3c2)c1` [Compound 121, 5-(3-(4-(Pyridin-2-yl)-1H-indol-2-yl)-1H-pyrazolo[3,4-b]pyridin-5-yl) pyridin-3-amine], the EC50 with SW480 colon cancer cells is 726 nM; in test [1] it was 174 nM; in test [2], 241 nM.

Consider `CCNCc1cncc(-c2cnc3[nH]nc(-c4cc5c(-c6ccccn6)cccc5[nH]4)c3c2)c1` [Compound 124, N-((5-(3-(4-(Pyridin-2-yl)-1H-indol-2-yl)-1H-pyrazolo[3,4-b]pyridin-5-yl)pyridin-3-yl)methyl)ethanamine], for which the EC50 came out at 4910 nM with SW480 colon cancer cells, 7010 nM in test [1] and 1800 nM in test [2].

As to `O=C(Nc1cncc(-c2cnc3[nH]nc(-c4cc5c(-c6ccccn6)cccc5[nH]4)c3c2)c1)c1ccccc1` [Compound 128, N-(5-(3-(4-(Pyridin-2-yl)-1H-indol-2-yl)-1H-pyrazolo[3,4-b]pyridin-5-yl)pyridin-3-yl)benzamide], the EC50 came out at 701 nM in the test on SW480 colon cancer cells, 390 nM in test [1] and 468 nM in test [2].

Consider `c1ccc(-c2cccc3[nH]c(-c4n[nH]c5ncc(-c6cncc(CN7CCCC7)c6)cc45)cc23)nc1` [Compound 131, 3-(4-(Pyridin-2-yl)-1H-indol-2-yl)-5-(5-(pyrrolidin-1-ylmethyl)pyridin-3-yl)-1H-pyrazolo[3,4-b]pyridine], for which the half-maximal effective concentration (EC50) in the test on SW480 colon cancer cells was 1190 nM; in test [1], 4530 nM; in test [2], 970 nM.

`CC(C)(C)CC(=O)Nc1cncc(-c2cnc3[nH]nc(-c4cc5c(-c6ccccn6)cccc5[nH]4)c3c2)c1` [Compound 133, 3,3-Dimethyl-N-(5-(3-(4-(pyridin-2-yl)-1H-indol-2-yl)-1H-pyrazolo[3,4-b]pyridin-5-yl)pyridin-3-yl)butanamide]: the concentration for a half-maximal effect (EC50) was 3250 nM with SW480 colon cancer cells, 1010 nM in test [1] and 753 nM in test [2].

In the case of `CCCCC(=O)Nc1cncc(-c2cnc3[nH]nc(-c4cc5c(-c6ccccn6)cccc5[nH]4)c3c2)c1` [Compound 136, N-(5-(3-(4-(Pyridin-2-yl)-1H-indol-2-yl)-1H-pyrazolo[3,4-b]pyridin-5-yl)pyridin-3-yl)pentanamide], the EC50 in the test on SW480 colon cancer cells stood at 4710 nM; in test [1], 385 nM; in test [2], 2670 nM.

Regarding `c1ccc(-c2cccc3[nH]c(-c4n[nH]c5ncc(-c6cncnc6)cc45)cc23)nc1` [Compound 143, 3-(4-(Pyridin-2-yl)-1H-indol-2-yl)-5-(pyrimidin-5-yl)-1H-pyrazolo[3,4-b]pyridine], the EC50 in the test on SW480 colon cancer cells is 9910 nM; in test [1], 2020 nM; in test [2], 4960 nM.

In the case of `CCNCc1cncc(-c2cnc3[nH]nc(-c4cc5c(N6CCCCC6)cccc5[nH]4)c3c2)c1` [Compound 150, N-((5-(3-(4-(Piperidin-1-yl)-1H-indol-2-yl)-1H-pyrazolo[3,4-b]pyridin-5-yl)pyridin-3-yl)methyl)ethanamine], the EC50 in the test with SW480 colon cancer cells was 2830 nM; in test [1], 4640 nM; in test [2], 2740 nM.

As to `CN(C)c1cncc(-c2cnc3[nH]nc(-c4cc5c(N6CCCCC6)cccc5[nH]4)c3c2)c1` [Compound 151, N,N-Dimethyl-5-(3-(4-(piperidin-1-yl)-1H-indol-2-yl)-1H-pyrazolo[3,4-b]pyridin-5-yl)pyridin-3-amine], the concentration for a half-maximal effect (EC50) is 5260 nM in the test on SW480 colon cancer cells, 982 nM in test [1] and 1630 nM in test [2].

`O=C(Nc1cncc(-c2cnc3[nH]nc(-c4cc5c(N6CCCCC6)cccc5[nH]4)c3c2)c1)c1ccccc1` [Compound 155, N-(5-(3-(4-(Piperidin-1-yl)-1H-indol-2-yl)-1H-pyrazolo[3,4-b]pyridin-5-yl)pyridin-3-yl)benzamide]: the EC50 is above 10000 nM with SW480 colon cancer cells, 3470 nM in test [1] and 5170 nM in test [2]. For the same molecule, the inhibition at 10 µM with SW480 colon cancer cells came out at 31%.

On to `CCCCC(=O)Nc1cncc(-c2cnc3[nH]nc(-c4cc5c(N6CCCCC6)cccc5[nH]4)c3c2)c1` [Compound 163, N-(5-(3-(4-(Piperidin-1-yl)-1H-indol-2-yl)-1H-pyrazolo[3,4-b]pyridin-5-yl)pyridin-3-yl)pentanamide], for which the results for the concentration giving a half-maximal response (EC50) (in the test on SW480 colon cancer cells; in test [1]; in test [2]) were above 10000 nM, 3390 nM and 8110 nM, respectively. Further, the inhibition at 10 µM in the test on SW480 colon cancer cells stood at 38%.

As to `CC(C)CC(=O)Nc1cncc(-c2cnc3[nH]nc(-c4cc5c(N6CCN(C)CC6)cccc5[nH]4)c3c2)c1` [Compound 202, 3-Methyl-N-(5-(3-(4-(4-methylpiperazin-1-yl)-1H-indol-2-yl)-1H-pyrazolo[3,4-b]pyridin-5-yl)pyridin-3-yl)butanamide], the EC50 in the test with SW480 colon cancer cells turned out to be 4840 nM; in test [1], 4470 nM; in test [2], 2310 nM.
